The text below walks through data of publication PMC6915887, “Inhibition of human carboxylesterases by ginsenosides: structure–activity relationships and inhibitory mechanism” (Chinese Medicine, 2019).

Structures are written as SMILES. Like-named read-outs stand apart in the source and are kept apart here.

In general, IC50 refers to the concentration that inhibits the measured activity by half. What is called Ki is a dissociation constant, usually derived from enzyme kinetics or from competition with a known ligand. A lower Ki goes with tighter binding.

Holding throughout (format): biochemical
Experiment [1] addresses T1, hCES2A (Homo sapiens, UniProt O00748).
T1 construct: tissue Bioreclamation IVT lot no; X008067; host or cells: pooled human liver microsomes (50 donors)
T1 sequence (O00748 27-559): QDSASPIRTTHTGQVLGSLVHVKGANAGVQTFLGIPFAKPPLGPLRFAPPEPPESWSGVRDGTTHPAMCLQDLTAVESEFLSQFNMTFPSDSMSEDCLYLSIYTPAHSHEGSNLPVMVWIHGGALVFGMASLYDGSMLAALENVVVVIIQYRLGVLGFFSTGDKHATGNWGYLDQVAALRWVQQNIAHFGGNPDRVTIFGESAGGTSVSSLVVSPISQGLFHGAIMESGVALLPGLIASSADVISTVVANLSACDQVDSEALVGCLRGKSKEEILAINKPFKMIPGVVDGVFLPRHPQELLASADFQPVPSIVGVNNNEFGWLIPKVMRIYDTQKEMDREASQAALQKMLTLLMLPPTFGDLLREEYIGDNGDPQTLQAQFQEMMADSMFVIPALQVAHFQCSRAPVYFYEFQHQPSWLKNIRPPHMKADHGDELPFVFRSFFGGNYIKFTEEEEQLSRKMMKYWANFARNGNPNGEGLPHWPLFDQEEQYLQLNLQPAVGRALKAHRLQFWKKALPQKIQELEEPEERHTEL
Nature of the experiment: Inhibition kinetic analyses of hCES2A-mediated FD hydrolysis in HLM.

Experiment [2] deals with T1, hCES2A. Nature of the experiment: hCES2A inhibition assay (FD hydrolysis in HLM).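 On all read-outs here: HLM at 1 µg/mL in 0.1 M PBS pH 7.4, kinetic read at 37 °C every 30 s over 30 min, triplicate runs.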 The following applies: for inhibition of hCES2A-mediated FD hydrolysis (residual activity screen): HLM, ginsenoside 100 μM, result in words; for Specificity (hCES1A/hCES2A): ratio of IC50 values in HLM; for IC50: HLM as enzyme source, FD hydrolysis as probe reaction, read-out: IC50 (μM) hCES2A.
Description: The incubation system contains 2 μL HLM (1 μg/mL, final concentration), 194 μL PBS (0.1 M pH 7.4) and 2 μL corresponding inhibitor. […] The kinetic parameters were set at 30 reads, with an interval of 30 s (30 min) and shake during 5 s before the first read at 37 °C.

For experiment [3], the target named is T2, hCES1A (Homo sapiens, UniProt P23141).
T2 construct: tissue Bioreclamation IVT lot no; X008067; host or cells: pooled human liver microsomes (50 donors)
T2 sequence (P23141 18-567): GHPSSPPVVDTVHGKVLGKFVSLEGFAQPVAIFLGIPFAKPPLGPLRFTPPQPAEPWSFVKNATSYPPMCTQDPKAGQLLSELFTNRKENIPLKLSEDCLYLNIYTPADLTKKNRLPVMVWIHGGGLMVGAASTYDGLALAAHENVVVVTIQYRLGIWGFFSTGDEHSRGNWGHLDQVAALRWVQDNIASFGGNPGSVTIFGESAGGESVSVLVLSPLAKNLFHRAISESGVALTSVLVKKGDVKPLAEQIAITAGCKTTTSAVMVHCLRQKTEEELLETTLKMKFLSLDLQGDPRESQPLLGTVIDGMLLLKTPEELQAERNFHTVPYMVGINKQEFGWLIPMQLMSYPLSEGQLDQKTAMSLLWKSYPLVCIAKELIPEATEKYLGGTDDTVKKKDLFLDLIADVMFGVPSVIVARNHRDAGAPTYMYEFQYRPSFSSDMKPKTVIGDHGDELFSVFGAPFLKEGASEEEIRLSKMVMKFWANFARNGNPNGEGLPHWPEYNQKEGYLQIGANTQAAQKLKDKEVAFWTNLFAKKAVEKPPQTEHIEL
Nature of the experiment: hCES1A inhibition assay (DME hydrolysis in HLM).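 Further: Read-out is D-luciferin luminescence formed from DME (3 µM) after 10 min at 37 °C in pH 6.5 PBS, HLM 1 µg/mL, inhibitor preincubated 3 min, oleanic acid as positive control.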
Description: DME hydrolysis was used as the probe reaction to assay the inhibitory effects of 25 ginsenosides against hCES1A, oleanic acid was used as a positive control of inhibition assays [43]. The incubation system contains 91 μL PBS (0.1 M pH 6.5), 5 μL HLM (1 μg/mL, final concentration) and 2 μL corresponding inhibitor. After pre-incubating the reaction mixture for 3 min at 37 °C, the reaction was started by adding 2 μL DME (3 μM, final concentration) with a total volume of 100 μL, in which the final content of DMSO was limited to 2% (v/v). After incubating for 10 min at 37 °C in a shaking bath, LDR (50 μL, equal volume of the incubation mixture) was added to terminate the reaction. The luminescence signals of D-luciferin (the hydrolytic metabolite of DME) was measured (excitation wavelength 580 nm) by a multi-mode microplate reader (SpectraMax® iD3, Molecular Devices, Austria).

The target of experiment [4] is T2, hCES1A. Nature of the experiment: Inhibition kinetic analyses of hCES1A-mediated DME hydrolysis in HLM. As for the experimental part:
According to the inhibition kinetics of both hCES1A and hCES2A, which were investigated by using varying concentrations of probe substrates in the presence of different concentrations of ginseng compounds (inhibitors), the inhibition constant (Ki) and inhibition kinetic types of ginsenosides were determined. The experimental details used to determine the inhibition constants have been reported previously.
All inhibition assays were performed in triplicate, nonlinear regression was used to determine the IC50 and Ki values with GraphPad Prism 7.0 software (GraphPad Software, Inc., La Jolla, USA).

Where [5] appears, read: HLM as enzyme source, DME hydrolysis as probe reaction, read-out: IC50 (μM) hCES1A.

`CC(C)=CCC[C@](C)(O)[C@H]1CC[C@]2(C)[C@@H]1CC[C@@H]1[C@@]3(C)CC[C@H](O)C(C)(C)[C@@H]3CC[C@]12C` [DM, Dammarenediol II]: on hCES2A [1], the Inhibition mode entry is listed as “Mixed”. For the same molecule, at hCES2A [2], the “inhibition of hCES2A-mediated FD hydrolysis (residual activity screen)” value is “strong or moderate inhibition” and the “Specificity (hCES1A/hCES2A)” value was determined as 3.06. Also, the half-inhibitory concentration (IC50) on hCES1A [3] (setting [5]) was 1.99 ± 0.21 µM. On hCES1A [4], the Inhibition mode result is given as “Competitive” and the affinity, expressed as Ki, was 2100 nM.
Regarding `CC(C)=CCC[C@](C)(O[C@@H]1O[C@H](CO)[C@@H](O)[C@H](O)[C@H]1O)C1CC[C@]2(C)C1CCC1[C@@]3(C)CC[C@H](O)C(C)(C)C3CC[C@]12C` (stereo partly drawn) [DMG, 20S-O-β-(D-glucosyl)-dammarenediol II], on hCES2A [1], the Inhibition mode entry is listed as “Mixed” and the affinity, expressed as Ki, was 2830 nM. Moreover, on hCES2A [2], the IC50 was 1.06 ± 0.21 µM and the “inhibition of hCES2A-mediated FD hydrolysis (residual activity screen)” value was “strong inhibition”. The half-inhibitory concentration (IC50) on hCES1A [3] (setting [5]) was determined as 1.76 ± 0.28 µM. For the same molecule, the “inhibition of hCES1A-mediated DME hydrolysis (residual activity screen)” value at hCES1A [3] (HLM, ginsenoside 100 μM, result in words) is on record as “strong inhibition”. Further, on hCES1A [4], the Inhibition mode result is on record as “Competitive” and the Ki worked out at 2400 nM.
Take `CC(C)=CCC[C@](C)(O)[C@H]1CC[C@]2(C)[C@@H]1[C@H](O)C[C@@H]1[C@@]3(C)CC[C@H](O)C(C)(C)[C@@H]3CC[C@]12C` [PPD, protopanaxadiol]: the Inhibition mode result on hCES2A [1] is on record as “Mixed”. At hCES2A [2], the “inhibition of hCES2A-mediated FD hydrolysis (residual activity screen)” value is recorded as “strong or moderate inhibition” and the “Specificity (hCES1A/hCES2A)” value is reported as greater than 75.18. In addition, the IC50 at hCES1A [3] (setting [5]) was greater than 100 µM.
For `CC(C)=CCC[C@](C)(O)[C@H]1CC[C@]2(C)[C@@H]1[C@H](O)C[C@@H]1[C@@]3(C)CC[C@H](O)C(C)(C)[C@@H]3[C@@H](O)C[C@]12C` [PPT, protopanaxatriol], the Inhibition mode result on hCES2A [1] is given as “Mixed”. Further, on hCES2A [2], the “inhibition of hCES2A-mediated FD hydrolysis (residual activity screen)” value is reported as “strong or moderate inhibition” and the “Specificity (hCES1A/hCES2A)” value is on record as greater than 116.28. The IC50 at hCES1A [3] (setting [5]) is greater than 100 µM.
Consider `CC(C)=CCC[C@](C)(O)[C@H]1CC[C@]2(C)[C@@H]1[C@H](O)C[C@@H]1[C@@]3(C)CC[C@H](O[C@@H]4O[C@H](CO)[C@@H](O)[C@H](O)[C@H]4O)C(C)(C)[C@@H]3CC[C@]12C` [Rh2], for which the “Specificity (hCES1A/hCES2A)” value at hCES2A [2] is given as greater than 18.86. The same molecule yielded a 50% inhibitory concentration (IC50) on hCES1A [3] greater than 100 µM.
`CC1(C)CCC2(C(=O)OC3OC(CO)C(O)C(O)C3O)CCC3(C)C(=CCC4C5(C)CCC(OC6OC(C(=O)O)C(O)C(O)C6OC6OC(CO)C(O)C(O)C6O)C(C)(C)C5CCC43C)C2C1` (centres unmarked) [Ro]: the IC50 on hCES2A [2] and on hCES1A [3] (setting [5]) was greater than 100 µM throughout.
